Key:
Assay type in all cases: in vivo
[1] = tested on: giant foxtail (Setaria faberi); assay: Test G Pre-Emergence Protocol; details: Setaria faberi, pre-emergence, 312 h, evaluated after 13 days; for pest or weed control at 15.625 g/ha: 15.625 g ai/ha; for pest or weed control at 15.625 g/ha / pest or weed control at 250 g/ha: read-out: Foxtail, Giant damage rating (100=total damage to plant; 0=no damage to plant); for pest or weed control at 62.5 g/ha: 62.5 g ai/ha, 100=total damage to plant, 0=no damage to plant, read-out: Foxtail, Giant damage rating; for pest or weed control at 250 g/ha: 250 g ai/ha
Method in brief: (§1)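 Herbicidal effect was rated 13 days post-application on a scale where 100 equals total damage. Spraying took place the day after sowing, using 15.625, 62.5 or 250 g/ha of compound in a 50:50 acetone/water solution with 0.5% Tween 20.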

[2] = tested on: ivy-leaved morning glory (Ipomoea hederacea); assay: Test G Pre-Emergence Protocol; details: Ipomoea, pre-emergence, 312 h, evaluated after 13 days; for pest or weed control at 15.625 g/ha: 15.625 g ai/ha; for pest or weed control at 15.625 g/ha / pest or weed control at 250 g/ha: read-out: Morningglory, Ivy-leaved damage rating (100=total damage to plant; 0=no damage to plant); for pest or weed control at 62.5 g/ha: 62.5 g ai/ha, 100=total damage to plant, 0=no damage to plant, read-out: Morningglory, Ivy-leaved damage rating; for pest or weed control at 250 g/ha: 250 g ai/ha
Method in brief: as §1

[3] = tested on: redroot pigweed (Amaranthus retroflexus); assay: Test G Pre-Emergence Protocol; details: Amaranthus retroflexus, pre-emergence, 312 h, evaluated after 13 days; for pest or weed control at 15.625 g/ha: 15.625 g ai/ha; for pest or weed control at 15.625 g/ha / pest or weed control at 250 g/ha: read-out: Pigweed, Redroot damage rating (100=total damage to plant; 0=no damage to plant); for pest or weed control at 62.5 g/ha: 62.5 g ai/ha, 100=total damage to plant, 0=no damage to plant, read-out: Pigweed, Redroot damage rating; for pest or weed control at 250 g/ha: 250 g ai/ha
Method in brief: as §1

[4] = tested on: barnyardgrass (Echinochloa crus-galli); assay: Test G Pre-Emergence Protocol; details: Echinochloa crus-galli, pre-emergence, 312 h, evaluated after 13 days; for pest or weed control at 15.625 g/ha: 15.625 g ai/ha; for pest or weed control at 15.625 g/ha / pest or weed control at 250 g/ha: read-out: Barnyardgrass damage rating (100=total damage to plant; 0=no damage to plant); for pest or weed control at 62.5 g/ha: 62.5 g ai/ha, 100=total damage to plant, 0=no damage to plant, read-out: Barnyardgrass damage rating; for pest or weed control at 250 g/ha: 250 g ai/ha
Method in brief: as §1

[5] = tested on: corn (Zea mays); assay: Test G Pre-Emergence Protocol; details: Zea mays, pre-emergence, 312 h, evaluated after 13 days; for plant injury at 15.625 g/ha: 15.625 g ai/ha; for plant injury at 15.625 g/ha / plant injury at 250 g/ha: read-out: Corn damage rating (100=total damage to plant; 0=no damage to plant); for plant injury at 62.5 g/ha: 62.5 g ai/ha, 100=total damage to plant, 0=no damage to plant, read-out: Corn damage rating; for plant injury at 250 g/ha: 250 g ai/ha
Method in brief: as §1

[6] = tested on: velvetleaf (Abutilon theophrasti); assay: Test G Pre-Emergence Protocol; details: Abutilon theophrasti, pre-emergence, 312 h, evaluated after 13 days; for pest or weed control at 15.625 g/ha: 15.625 g ai/ha; for pest or weed control at 15.625 g/ha / pest or weed control at 250 g/ha: read-out: Velvetleaf damage rating (100=total damage to plant; 0=no damage to plant); for pest or weed control at 62.5 g/ha: 62.5 g ai/ha, 100=total damage to plant, 0=no damage to plant, read-out: Velvetleaf damage rating; for pest or weed control at 250 g/ha: 250 g ai/ha
Method in brief: as §1

[7] = tested on: giant foxtail (Setaria faberi); assay: Test G Post-Emergence Protocol; details: Setaria faberi, post-emergence, 312 h, read-out: Foxtail, Giant damage rating; for pest or weed control at 15.625 g/ha: 15.625 g ai/ha, evaluated after 13 days (100=total damage to plant; 0=no damage to plant); for pest or weed control at 62.5 g/ha: 62.5 g ai/ha; for pest or weed control at 62.5 g/ha / pest or weed control at 250 g/ha: evaluated after 13 days, 100=total damage to plant, 0=no damage to plant; for pest or weed control at 250 g/ha: 250 g ai/ha
Method in brief: (§2)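 Sow in soil; grow 8 d (24/16 °C, 14 h light, 65% humidity); spray 15.625/62.5/250 g/ha in acetone:water 50:50 + 0.5% Tween 20; grow on, water twice daily; score damage 0–100 at 13 d.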

[8] = tested on: ivy-leaved morning glory (Ipomoea hederacea); assay: Test G Post-Emergence Protocol; details: Ipomoea, post-emergence, 312 h, read-out: Morningglory, Ivy-leaved damage rating; for pest or weed control at 15.625 g/ha: 15.625 g ai/ha, evaluated after 13 days (100=total damage to plant; 0=no damage to plant); for pest or weed control at 62.5 g/ha: 62.5 g ai/ha; for pest or weed control at 62.5 g/ha / pest or weed control at 250 g/ha: evaluated after 13 days, 100=total damage to plant, 0=no damage to plant; for pest or weed control at 250 g/ha: 250 g ai/ha
Method in brief: as §2

[9] = tested on: redroot pigweed (Amaranthus retroflexus); assay: Test G Post-Emergence Protocol; details: Amaranthus retroflexus, post-emergence, 312 h, read-out: Pigweed, Redroot damage rating; for pest or weed control at 15.625 g/ha: 15.625 g ai/ha, evaluated after 13 days (100=total damage to plant; 0=no damage to plant); for pest or weed control at 62.5 g/ha: 62.5 g ai/ha; for pest or weed control at 62.5 g/ha / pest or weed control at 250 g/ha: evaluated after 13 days, 100=total damage to plant, 0=no damage to plant; for pest or weed control at 250 g/ha: 250 g ai/ha
Method in brief: as §2

[10] = tested on: barnyardgrass (Echinochloa crus-galli); assay: Test G Post-Emergence Protocol; details: Echinochloa crus-galli, post-emergence, 312 h, read-out: Barnyardgrass damage rating; for pest or weed control at 15.625 g/ha: 15.625 g ai/ha, evaluated after 13 days (100=total damage to plant; 0=no damage to plant); for pest or weed control at 62.5 g/ha: 62.5 g ai/ha; for pest or weed control at 62.5 g/ha / pest or weed control at 250 g/ha: evaluated after 13 days, 100=total damage to plant, 0=no damage to plant; for pest or weed control at 250 g/ha: 250 g ai/ha
Method in brief: as §2

[11] = tested on: corn (Zea mays); assay: Test G Post-Emergence Protocol; details: Zea mays, post-emergence, 312 h, read-out: Corn damage rating; for plant injury at 15.625 g/ha: 15.625 g ai/ha, evaluated after 13 days (100=total damage to plant; 0=no damage to plant); for plant injury at 62.5 g/ha: 62.5 g ai/ha; for plant injury at 62.5 g/ha / plant injury at 250 g/ha: evaluated after 13 days, 100=total damage to plant, 0=no damage to plant; for plant injury at 250 g/ha: 250 g ai/ha
Method in brief: as §2

[12] = tested on: velvetleaf (Abutilon theophrasti); assay: Test G Post-Emergence Protocol; details: Abutilon theophrasti, post-emergence, 312 h, read-out: Velvetleaf damage rating; for pest or weed control at 15.625 g/ha: 15.625 g ai/ha, evaluated after 13 days (100=total damage to plant; 0=no damage to plant); for pest or weed control at 62.5 g/ha: 62.5 g ai/ha; for pest or weed control at 62.5 g/ha / pest or weed control at 250 g/ha: evaluated after 13 days, 100=total damage to plant, 0=no damage to plant; for pest or weed control at 250 g/ha: 250 g ai/ha
Method in brief: as §2

Structure (SMILES)	pest or weed control at 15.625 g/ha [1]	pest or weed control at 62.5 g/ha [1]	pest or weed control at 250 g/ha [1]	pest or weed control at 15.625 g/ha [2]	pest or weed control at 62.5 g/ha [2]	pest or weed control at 250 g/ha [2]	pest or weed control at 15.625 g/ha [3]	pest or weed control at 62.5 g/ha [3]	pest or weed control at 250 g/ha [3]	pest or weed control at 15.625 g/ha [4]	pest or weed control at 62.5 g/ha [4]	pest or weed control at 250 g/ha [4]	plant injury at 15.625 g/ha [5]	plant injury at 62.5 g/ha [5]	plant injury at 250 g/ha [5]	pest or weed control at 15.625 g/ha [6]	pest or weed control at 62.5 g/ha [6]	pest or weed control at 250 g/ha [6]	pest or weed control at 15.625 g/ha [7]	pest or weed control at 62.5 g/ha [7]	other results
CCc1cc([C@@H]2CN(C)C(=O)[C@H]2C(=O)Nc2cccc(F)c2C)ccc1Cl (racemic) [Compound 1804]	50%	90%	90%	0%	0%	10%	0%	20%	30%	0%	80%	90%	0%	0%	60%	0%	10%	30%	0%	70%	pest or weed control at 250 g/ha [7]: 80%; pest or weed control at 15.625 g/ha [8]: 0%; pest or weed control at 62.5 g/ha [8]: 50%; pest or weed control at 250 g/ha [8]: 60%; pest or weed control at 15.625 g/ha [9]: 0%; pest or weed control at 62.5 g/ha [9]: 0%; pest or weed control at 250 g/ha [9]: 10%; pest or weed control at 15.625 g/ha [10]: 0%; pest or weed control at 62.5 g/ha [10]: 50%; pest or weed control at 250 g/ha [10]: 60%; plant injury at 15.625 g/ha [11]: 0%; plant injury at 62.5 g/ha [11]: 0%; plant injury at 250 g/ha [11]: 70%; pest or weed control at 15.625 g/ha [12]: 0%; pest or weed control at 62.5 g/ha [12]: 10%; pest or weed control at 250 g/ha [12]: 10%
CN1C[C@@H](c2cc(Br)cc(Oc3ccccc3)c2)[C@H](C(=O)Nc2cccc(F)c2F)C1=O (racemic) [Compound 1821]	0%	10%	60%	0%	0%	0%	0%	0%	20%	0%	0%	0%	0%	10%	0%	0%	0%	0%	0%	10%	pest or weed control at 250 g/ha [7]: 30%; pest or weed control at 15.625 g/ha [8]: 0%; pest or weed control at 62.5 g/ha [8]: 0%; pest or weed control at 250 g/ha [8]: 10%; pest or weed control at 15.625 g/ha [9]: 0%; pest or weed control at 62.5 g/ha [9]: 30%; pest or weed control at 250 g/ha [9]: 70%; pest or weed control at 15.625 g/ha [10]: 0%; pest or weed control at 62.5 g/ha [10]: 0%; pest or weed control at 250 g/ha [10]: 0%; plant injury at 15.625 g/ha [11]: 10%; plant injury at 62.5 g/ha [11]: 10%; plant injury at 250 g/ha [11]: 30%; pest or weed control at 15.625 g/ha [12]: 0%; pest or weed control at 62.5 g/ha [12]: 10%; pest or weed control at 250 g/ha [12]: 0%
